Reference: paper doi:10.1101/2020.02.10.936898v1 (biorxiv, 2020)

Columns and labels:
EV-A71 3C^pro = EV-A71 3C^pro (Human enterovirus 71 (strain BRCR), UniProt Q66478); details: read-out: EV-A71 3Cpro; inhibitor
CVB3 3C^pro [1] = biological target: T1, CVB3 3C^pro (Coxsackievirus B3, UniProt Q5UEA2); assay: biochemical
CVB3 3C^pro [2] = biological target: T1, CVB3 3C^pro; assay: FRET peptide cleavage assay; format: biochemical
HCoV-NL63 M^pro = HCoV-NL63 M^pro (Human coronavirus NL63, UniProt P0C6X5); assay: FRET peptide cleavage assay; format: biochemical
Sequence of HCoV-NL63 M^pro (P0C6X5 2940-3242): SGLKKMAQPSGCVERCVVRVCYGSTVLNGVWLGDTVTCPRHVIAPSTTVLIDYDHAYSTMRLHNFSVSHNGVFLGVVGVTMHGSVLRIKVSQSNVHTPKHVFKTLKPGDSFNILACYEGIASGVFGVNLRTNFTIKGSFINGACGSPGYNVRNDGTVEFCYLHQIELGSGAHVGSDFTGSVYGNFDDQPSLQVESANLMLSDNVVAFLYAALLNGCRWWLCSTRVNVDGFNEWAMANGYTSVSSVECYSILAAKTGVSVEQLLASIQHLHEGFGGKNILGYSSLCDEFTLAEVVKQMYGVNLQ

EV-A71 = assay: microbe, parasite or virus in culture; parameters: species or system Huh-T7; details: Enterovirus A, EVA71, read-out: EV-A71 replicon *
CVB3 (Nancy) = assay: microbe, parasite or virus in culture; parameters: species or system Huh-T7; details: Enterovirus B, CVB3, read-out: CVB3 replicon *

Sequence of EV-A71 3C^pro (Q66478 1549-1731): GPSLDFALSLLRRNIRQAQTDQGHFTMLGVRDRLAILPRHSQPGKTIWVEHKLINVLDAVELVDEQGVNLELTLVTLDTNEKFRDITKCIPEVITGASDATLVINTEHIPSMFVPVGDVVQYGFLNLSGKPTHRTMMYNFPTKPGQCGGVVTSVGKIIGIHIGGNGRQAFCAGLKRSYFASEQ

Row | SMILES | IC50 (EV-A71 3C^pro) [µM] | IC50 (CVB3 3C^pro [1]) [µM] | IC50 (CVB3 3C^pro [2]) [µM] | IC50 (HCoV-NL63 M^pro) [µM] | EC50 (EV-A71) [µM] | EC50 (CVB3 (Nancy)) [µM]
1 | COC(=O)CNC(=O)C(=O)[C@H](C[C@@H]1CCNC1=O)NC(=O)[C@H](Cc1ccccc1)NC(=O)/C=C/c1ccccc1 [11e] | 11.1 ± 2.64 | 9.91 ± 1.84 | – | – | – | –
2 | CC(C)C[C@H](NC(=O)/C=C/c1ccccc1)C(=O)N[C@@H](C[C@@H]1CCNC1=O)C(=O)C(=O)NCc1ccccc1 [11n, (S)-N-((S)-4-(benzylamino)-3,4-dioxo-1-((S)-2-oxopyrrolidin-3-yl)butan-2-yl)-2-cinnamamido-4-methylpentanamide] | – | – | 3.82 ± 1.21 | 1.08 ± 0.09 | – | –
3 | O=C(CCc1ccccc1)N[C@@H](Cc1ccccc1)C(=O)N[C@@H](C[C@@H]1CCNC1=O)C(=O)C(=O)NCc1ccccc1 [11g] | 4.57 ± 1.04 | 3.5 ± 1.06 | – | – | – | –
4 | O=C(/C=C/c1ccccc1)N[C@@H](Cc1ccccc1)C(=O)N[C@@H](C[C@@H]1CCNC1=O)C(=O)C(=O)NCc1ccccc1 [11a, (S)-N-benzyl-3-((S)-2-cinnamamido-3-phenylpropanamido)-2-oxo-4-((S)-2-oxopyrrolidin-3-yl)butanamide] | – | – | 6.56 ± 3.1 | > 50 | – | –
5 | O=C(/C=C/c1ccccc1)N[C@H](C(=O)N[C@@H](C[C@@H]1CCNC1=O)C(=O)C(=O)NCc1ccccc1)C1CC1 [11q, (S)-N-benzyl-3-((S)-2-cinnamamido-2-cyclopropylacetamido)-2-oxo-4-((S)-2-oxopyrrolidin-3-yl)butanamide] | – | – | 15.4 ± 4.12 | 11.5 ± 5.05 | – | –
6 | O=C(/C=C/c1ccccc1)N[C@@H](CC1CC1)C(=O)N[C@@H](C[C@@H]1CCNC1=O)C(=O)C(=O)NCc1ccccc1 [11s, (S)-N-benzyl-3-((S)-2-cinnamamido-3-cyclopropylpropanamido)-2-oxo-4-((S)-2-oxopyrrolidin-3-yl)butanamide] | – | – | 4.25 ± 1.4 | 1.37 ± 0.35 | – | –
7 | CCCCNC(=O)C(=O)[C@H](C[C@@H]1CCNC1=O)NC(=O)[C@H](Cc1ccccc1)NC(=O)/C=C/c1ccccc1 [11b] | 2.38 ± 0.58 | 1 ± 0.35 | – | – | – | –
8 | O=C(/C=C/c1ccccc1)N[C@@H](Cc1ccc(F)cc1)C(=O)N[C@@H](C[C@@H]1CCNC1=O)C(=O)C(=O)NCc1ccccc1 [11m, (S)-N-benzyl-3-((S)-2-cinnamamido-3-(4-fluorophenyl)propanamido)-2-oxo-4-((S)-2-oxopyrrolidin-3-yl)butanamide] | – | – | 8.69 ± 1.28 | > 50 | – | –
9 | O=C(/C=C/c1ccccc1)N[C@@H](CC1CCCC1)C(=O)N[C@@H](C[C@@H]1CCNC1=O)C(=O)C(=O)NCc1ccccc1 [11u, (S)-N-benzyl-3-((S)-2-cinnamamido-3-cyclopentylpropanamido)-2-oxo-4-((S)-2-oxopyrrolidin-3-yl)butanamide] | – | – | 1.93 ± 0.43 | 5.41 ± 2.31 | 3.65 | 4.9
10 | O=C(NCc1ccccc1)C(=O)[C@H](C[C@@H]1CCNC1=O)NC(=O)[C@H](Cc1ccccc1)NC(=O)c1cc2ccccc2s1 [11k] | > 50 | 18.6 ± 0.58 | – | – | – | –
11 | CC(C)(C)OC(=O)N[C@@H](C[C@@H]1CCNC1=O)C(=O)C(=O)NCc1ccccc1 [11f, tert-Butyl ((S)-4-(benzylamino)-3,4-dioxo-1-((S)-2-oxopyrrolidin-3-yl)butan-2-yl)carbamate] | – | – | > 50 | > 50 | – | –
12 | O=C(NCc1ccccc1)C(=O)[C@H](C[C@@H]1CCNC1=O)NC(=O)[C@H](Cc1ccccc1)NC(=O)c1cn2cc(Br)ccc2n1 [11l] | > 50 | 30.8 ± 12.9 | – | – | – | –
13 | CC(C)CNC(=O)C(=O)[C@H](C[C@@H]1CCNC1=O)NC(=O)[C@H](CC(C)C)NC(=O)/C=C/c1ccccc1 [11d] | 17.7 ± 8.78 | 6.5 ± 0.58 | – | – | – | –
14 | CCCC[C@H](NC(=O)/C=C/c1ccccc1)C(=O)N[C@@H](C[C@@H]1CCNC1=O)C(=O)C(=O)NCc1ccccc1 [11o, (S)-N-((S)-4-(benzylamino)-3,4-dioxo-1-((S)-2-oxopyrrolidin-3-yl)butan-2-yl)-2-cinnamamidohexanamide] | – | – | 5.2 ± 0.28 | > 50 | – | –
15 | CC(C)(C)NC(=O)C(=O)[C@H](C[C@@H]1CCNC1=O)NC(=O)[C@H](Cc1ccccc1)NC(=O)/C=C/c1ccccc1 [11c] | 19 ± 5.79 | 9.86 ± 2.68 | – | – | – | –
16 | O=C(NCc1ccccc1)C(=O)[C@H](C[C@@H]1CCNC1=O)NC(=O)[C@H](Cc1ccccc1)NC(=O)c1ccc2c(c1)OCCO2 [11h] | 4.75 ± 2.73 | 3.66 ± 0.79 | – | – | – | –
17 | C#CC[C@H](NC(=O)/C=C/c1ccccc1)C(=O)N[C@@H](C[C@@H]1CCNC1=O)C(=O)C(=O)NCc1ccccc1 [11p, (S)-N-((S)-4-(benzylamino)-3,4-dioxo-1-((S)-2-oxopyrrolidin-3-yl)butan-2-yl)-2-cinnamamidopent-4-ynamide] | – | – | 8.93 ± 2.39 | 17.4 ± 3.97 | – | –
18 | O=C(/C=C/c1ccccc1)N[C@@H](CC1CCC1)C(=O)N[C@@H](C[C@@H]1CCNC1=O)C(=O)C(=O)NCc1ccccc1 [11t, (S)-N-benzyl-3-((S)-2-cinnamamido-3-cyclobutylpropanamido)-2-oxo-4-((S)-2-oxopyrrolidin-3-yl)butanamide] | – | – | 4.78 ± 1.13 | 3.43 ± 2.45 | – | 2.2
19 | O=C(/C=C/c1ccccc1)N[C@@H](CC1CCCCC1)C(=O)N[C@@H](C[C@@H]1CCNC1=O)C(=O)C(=O)NCc1ccccc1 [11r, (S)-N-benzyl-3-((S)-2-cinnamamido-3-cyclohexylpropanamido)-2-oxo-4-((S)-2-oxopyrrolidin-3-yl)butanamide] | – | – | 0.95 ± 0.15 | 12.3 ± 3.56 | 0.85 | 0.45
20 | O=C(NCc1ccccc1)C(=O)[C@H](C[C@@H]1CCNC1=O)NC(=O)[C@H](Cc1ccccc1)NC(=O)c1cccc2c1OCCO2 [11i] | 9.74 ± 3.88 | 4.82 ± 1.17 | – | – | – | –
21 | O=C(NCc1ccccc1)C(=O)[C@H](C[C@@H]1CCNC1=O)NC(=O)[C@H](Cc1ccccc1)NC(=O)c1cc2ccccc2o1 [11j] | 11.3 ± 6.52 | 9.19 ± 2.99 | – | – | – | –
